Measurements from paper PMC9403976, “Elucidating the path to Plasmodium prolyl-tRNA synthetase inhibitors that overcome halofuginone resistance” (Nature Communications, 2022).
“And” between values parts separate entries of the source, which are not always exact repeats. Equal values may be shown once. Read-outs that look alike come from different tables or passages of the source.

Experiments:
P. falciparum Dd2-2D4 = assay: P. falciparum asexual blood stage (ABS) growth assay, SYBR Green, 72 h, wild-type parasites; format: cell-based, Plasmodium falciparum; conditions: for parasite growth, replicate wells (Fig 1b): Dd2-2D4
[1] = tested on: halofuginone-induced P. falciparum (elevated proline homeostasis); assay: P. falciparum ABS growth assay, SYBR Green, 72 h, halofuginone-induced parasites; format: cell-based, Plasmodium falciparum; conditions: Halofuginone-Induced
Outline: (§1)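 EC50 came from SYBR Green 1 fluorescence measured 72 h after dosing in triplicate dose-response. Dihydroartemisinin at 10 μM set full kill and untreated wells set full growth. Cultures of the Dd2 lines were seeded at 1% hematocrit and 1% parasitemia in Albumax-supplemented RPMI.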

[2] = tested on: HFGR-I P. falciparum (elevated proline homeostasis and PfcProRS^L482H); assay: P. falciparum ABS growth assay, SYBR Green, 72 h, HFGR-I parasites; format: cell-based, Plasmodium falciparum; conditions: HFGR-I, listed as Halofuginone (1)
Outline: as §1

[3] = tested on: P. falciparum Dd2-2D4 NCP26 selections S1-3; assay: ABS growth assay on bulk populations and clones from NCP26 resistance selections S1-3; format: cell-based, Plasmodium falciparum; conditions: for EC50: Plasmodium falciparum; for Fold-change Resistance: independent experiments
PfcProRS = biological target: T1, PfcProRS (Plasmodium falciparum, UniProt Q8I5R7); format: binding; conditions: for dose-response signal (normalized), SI Fig 8: single replicates, listed as Halofuginone (1)
T1 construct: made in house; host or cells: E. coli SoluBL-21
T1 sequence (Q8I5R7 249-746): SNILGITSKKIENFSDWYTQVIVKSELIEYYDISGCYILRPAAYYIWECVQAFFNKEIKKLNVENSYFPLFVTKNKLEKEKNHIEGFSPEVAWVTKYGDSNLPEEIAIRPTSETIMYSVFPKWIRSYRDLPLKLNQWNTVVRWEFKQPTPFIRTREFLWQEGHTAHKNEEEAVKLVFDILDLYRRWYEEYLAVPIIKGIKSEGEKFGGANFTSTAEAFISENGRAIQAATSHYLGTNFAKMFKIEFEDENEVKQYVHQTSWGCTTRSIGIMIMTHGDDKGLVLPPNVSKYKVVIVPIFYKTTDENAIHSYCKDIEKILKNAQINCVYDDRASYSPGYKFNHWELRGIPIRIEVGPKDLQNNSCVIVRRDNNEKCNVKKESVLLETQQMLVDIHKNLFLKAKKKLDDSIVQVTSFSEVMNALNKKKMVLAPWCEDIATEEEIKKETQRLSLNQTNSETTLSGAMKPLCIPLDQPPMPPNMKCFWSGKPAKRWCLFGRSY

[4] = Log[inhibitor] (M) -7.602, listed as Halofuginone (1)
[5] = Log[inhibitor] (M) -7.903, listed as Halofuginone (1)
[6] = Log[inhibitor] (M) -8.204, listed as Halofuginone (1)
[7] = Log[inhibitor] (M) -8.806, listed as Halofuginone (1)
[8] = Log[inhibitor] (M) -9.107, listed as Halofuginone (1)
[9] = Log[inhibitor] (M) -9.408, listed as Halofuginone (1)
[10] = Log[inhibitor] (M) -9.709, listed as Halofuginone (1)
[11] = Log[inhibitor] (M) -10.010, listed as Halofuginone (1)
[12] = Log[inhibitor] (M) -10.311, listed as Halofuginone (1)

With O=C(CC1NCCCC1O)Cn1cnc2cc(Br)c(Cl)cc2c1=O (stereo not shown) [Halofuginone] the “parasite growth, replicate wells (Fig 1b)” value (from here on “parasite growth”) (P. falciparum Dd2-2D4; Log[inhibitor] (M) -7.000) was 1.00E+00, the “parasite growth” value (P. falciparum Dd2-2D4; Log[inhibitor] (M) -7.301) was 1.00E+00 and the “parasite growth” value (P. falciparum Dd2-2D4; [4]) was 0.00E+00 (2×) and 1.00E+00. The “parasite growth” value (P. falciparum Dd2-2D4; [5]) was 2.00E+00 (2×) and 0.00E+00, the “parasite growth” value (P. falciparum Dd2-2D4; [6]) was 1.00E+00 (2×) and 0.00E+00 and the “parasite growth” value (P. falciparum Dd2-2D4; Log[inhibitor] (M) -8.505) was 0.00E+00. For the same compound, the “parasite growth” value (P. falciparum Dd2-2D4; [7]) was 0.00E+00 (2×) and -1.00E+00, the “parasite growth” value (P. falciparum Dd2-2D4; [8]) was 5.00E+00 (2×) and 4.00E+00 and the “parasite growth” value (P. falciparum Dd2-2D4; [9]) was 9.10E+01 and 8.70E+01 and 8.90E+01. For the same compound, the “parasite growth” value (P. falciparum Dd2-2D4; [10]) was 1.04E+02 and 1.07E+02 (2×), the “parasite growth” value (P. falciparum Dd2-2D4; [11]) was 1.06E+02 and 1.04E+02 (2×) and the “parasite growth” value (P. falciparum Dd2-2D4; [12]) was 9.80E+01 and 9.90E+01 and 9.70E+01. For the same compound, the EC50 (P. falciparum Dd2-2D4; Plasmodium falciparum, DD2, SI Fig 16b, values on -log scale, read-out: ABS - Dd2-2D4 (converted)) was 0.519 nM, the “parasite growth” value ([1]; Log[inhibitor] (M) -7.000) was 1.00E+00 and the “parasite growth” value ([1]; Log[inhibitor] (M) -7.301) was 6.00E+00. For the same compound, the “parasite growth” value [1, 4] was 2.30E+01 and 2.20E+01 (2×), the “parasite growth” value [1, 5] was 8.60E+01 (2×) and 9.10E+01 and the “parasite growth” value [1, 6] was 1.04E+02 and 1.02E+02 (2×). The “parasite growth” value ([1]; Log[inhibitor] (M) -8.505, listed as Halofuginone (1)) was 1.05E+02 and 1.03E+02 and 9.50E+01, the “parasite growth” value [1, 7] was 9.20E+01 and 9.40E+01 and 9.50E+01 and the “parasite growth” value [1, 8] was 9.60E+01 and 9.70E+01 and 9.40E+01. The “parasite growth” value [1, 9] was 9.80E+01 and 9.60E+01 and 9.50E+01, the “parasite growth” value [1, 10] was 9.90E+01 and 1.00E+02 and 9.80E+01 and the “parasite growth” value [1, 11] was 1.00E+02 and 9.60E+01 and 9.90E+01. For the same compound, the “parasite growth” value [1, 12] was 9.90E+01 (2×) and 1.00E+02, the “parasite growth” value ([2]; Log[inhibitor] (M) -5.204) was 3.00E+00 and 2.00E+00 and 4.00E+00 and the “parasite growth” value ([2]; Log[inhibitor] (M) -5.505) was 4.00E+00 (2×) and 3.00E+00. For the same compound, the “parasite growth” value ([2]; Log[inhibitor] (M) -5.806) was 3.00E+00 (2×) and 4.00E+00, the “parasite growth” value ([2]; Log[inhibitor] (M) -6.107) was 6.00E+00 (2×) and 5.00E+00 and the “parasite growth” value ([2]; Log[inhibitor] (M) -6.408) was 1.70E+01 (2×) and 1.60E+01. For the same compound, the “parasite growth” value ([2]; Log[inhibitor] (M) -6.709) was 5.40E+01 and 5.50E+01 (2×), the “parasite growth” value ([2]; Log[inhibitor] (M) -7.000) was 7.70E+01 and 8.00E+01 and 8.50E+01 and the “parasite growth” value ([2]; Log[inhibitor] (M) -7.010) was 8.50E+01 and 8.60E+01 and 8.30E+01. For the same compound, the “parasite growth” value ([2]; Log[inhibitor] (M) -7.301) was 9.80E+01 and 1.03E+02 and 9.90E+01, the “parasite growth” value ([2]; Log[inhibitor] (M) -7.311) was 9.50E+01 and 9.00E+01 and 9.10E+01 and the “parasite growth” value ([2]; Log[inhibitor] (M) -7.602) was 1.01E+02 and 1.03E+02 and 1.05E+02. The “parasite growth” value ([2]; Log[inhibitor] (M) -7.903) was 1.04E+02 and 1.03E+02 and 1.06E+02, the “parasite growth” value ([2]; Log[inhibitor] (M) -8.204) was 1.05E+02 and 1.07E+02 and 1.03E+02 and the “parasite growth” value ([2]; Log[inhibitor] (M) -8.505) was 1.06E+02 and 1.04E+02 and 1.02E+02. For the same compound, the EC50 ([3]; DD2, cell line S1 - Clone A8, read-out: EC50 [nM] mean) was 0.641 nM, the EC50 ([3]; DD2, cell line S1 - bulk population, read-out: EC50 [nM] mean) was 0.951 nM and the EC50 ([3]; DD2, cell line S2 - Clone A3, read-out: EC50 [nM] mean) was 0.36 nM. For the same compound, the EC50 ([3]; DD2, cell line S2 - Clone B9, read-out: EC50 [nM] mean) was 0.694 nM, the EC50 ([3]; DD2, cell line S2 - Clone C5, read-out: EC50 [nM] mean) was 0.439 nM and the EC50 ([3]; DD2, cell line S2 - bulk population, read-out: EC50 [nM] mean) was 0.432 nM. For the same compound, the EC50 ([3]; DD2, cell line S3 - Clone B3, read-out: EC50 [nM] mean) was 2.51 nM, the EC50 ([3]; DD2, cell line S3 - Clone B7, read-out: EC50 [nM] mean) was 2.01 nM and the EC50 ([3]; DD2, cell line S3 - bulk population, read-out: EC50 [nM] mean) was 2.56 nM. For the same compound, the EC50 ([3]; DD2, read-out: EC50 [nM] mean, cell line S3 - Clone B2) was 2.75 nM, the “Fold-change Resistance” value ([3]; S1 - Clone A8) was 0.97 and 0.75 and 1.48 and the “Fold-change Resistance” value ([3]; S2 - Clone B9) was 0.89 and 1.08. The “Fold-change Resistance” value ([3]; S2 - Clone C5) was 0.56 and 0.68, the “Fold-change Resistance” value ([3]; S3 - Clone B2) was 3.65 and 3.48 and the “Fold-change Resistance” value ([3]; S3 - Clone B3) was 3.93 and 2.72 and 3.23. The “Fold-change Resistance” value ([3]; S3 - Clone B7) was 2.66 and 3.07 and 3.15, the “binding mode with respect to substrates (ATP, proline)” value (PfcProRS) was “ATP-uncompetitive binding” and the “fold increased affinity in the presence of ATP” value (PfcProRS; 500 μM ATP vs 0 μM ATP) was greater than 6000 fold. The “dose-response signal (normalized), SI Fig 8” value (PfcProRS; Log[inhibitor] (M) -5.000) was 7.25E-01 and 6.60E-01 and 7.89E-01, the “dose-response signal (normalized), SI Fig 8” value (PfcProRS; Log[inhibitor] (M) -5.258) was 8.77E-01 and 7.58E-01 and 8.28E-01 and the “dose-response signal (normalized), SI Fig 8” value (PfcProRS; Log[inhibitor] (M) -5.517) was 8.36E-01 and 8.59E-01 and 9.08E-01. The “dose-response signal (normalized), SI Fig 8” value (PfcProRS; Log[inhibitor] (M) -5.775) was 9.71E-01 and 9.45E-01 and 1.00E+00, the “dose-response signal (normalized), SI Fig 8” value (PfcProRS; Log[inhibitor] (M) -6.018) was 9.98E-01 and 1.00E+00 and 1.01E+00 and the “dose-response signal (normalized), SI Fig 8” value (PfcProRS; Log[inhibitor] (M) -6.281) was 9.70E-01 and 1.00E+00 and 9.36E-01. For the same compound, the “dose-response signal (normalized), SI Fig 8” value (PfcProRS; Log[inhibitor] (M) -6.535) was 9.87E-01 and 8.91E-01 and 9.43E-01, the “dose-response signal (normalized), SI Fig 8” value (PfcProRS; Log[inhibitor] (M) -6.796) was 1.03E+00 (2×) and 1.00E+00 and the “dose-response signal (normalized), SI Fig 8” value (PfcProRS; Log[inhibitor] (M) -7.056) was 9.55E-01 and 1.03E+00 (2×). For the same compound, the “dose-response signal (normalized), SI Fig 8” value (PfcProRS; Log[inhibitor] (M) -7.319) was 1.02E+00 (2×) and 9.30E-01.
